# What was measured:
# [1] = system: skin keratinocyte cell line (HaCaT); test: Protection of skin keratinocytes from ultraviolet injury (MTT assay); type: cell-based, human; conditions: 25 mJ/cm^2 UVB; phosphatidylserine 20 and 40 μM, WY-14643 200 μM; 24 hours; FIG. 4
# fibroblasts = test: Expression level of pro-collagen and MMP-1 in fibroblasts (western blot); type: cell-based; conditions: 20 μM, FIG. 10
# Method: In order to examine a skin aging-suppressing efficacy of the phosphatidylserine of the invention, it was quantitatively measured the expression amounts of the pro-collagen and the matrix metalloproteinase (MMP). It was tried a protein-antibody reaction through an electrophoresis (western blot) as the quantitative method. The cultivation was performed in manners of irradiating the ultraviolet to the fibroblasts (a gift from Seoul National University, Korea) and otherwise. After that, it was treated with the phosphatidylserine (20 μM), the cell was collected to extract the protein parts. The extracted protein was dissolved in the sodium dodecyl sulfate (SDS) and then subject to the electrophoresis on the SDS-polyacrylamide gel. […] An amount of the protein was measured using the color.
# [2] = system: skin keratinocyte cell line (HaCaT) and normal human keratinocytes; test: Reduction of inflammatory response induced by ultraviolet irradiation in skin keratinocytes (ELISA of TNF-a, IL-6, IL-1alpha); type: cell-based; conditions: 25 mJ/cm^2 UVB; phosphatidylserine 20 and 40 μM, WY-14643 200 μM; 24 hours; FIG. 3
# Method: In order to examine an inflammatory response-reducing effect of the phosphatidylserine of the invention in the skin keratinocyte, which response results from the ultraviolet irradiation, a following experiment was performed in accordance with a method disclosed in the literature (Stefan et. al., The Journal of Investigate Dermatology, 117, pp 1430-1436, 2001).
# First, the skin keratinocyte cell line (HaCaT, a gift from Yonsei univeritym, Korea) was seeded to a 35 mm^2 of cell culture dish in an amount of 3×10^5 cells/dish and then cultured for a day. Next day, the culture medium was removed and the cell was washed with 1× phosphate-buffered saline (PBS), 700 μl of 1×PBS was added to each of the dishes, it was irradiated 25 mJ/cm^2 UVB and then PBS was removed. […] Next day, the culture medium was collected and then amounts of TNF-a and IL-6 which have been known as inflammatory cytokines were measured with an enzyme-linked immunosorbent assay (ELISA) method. In addition, in order to check that there occurred a similar inflammatory response reducing effect also in the normal human skin keratinocyte, an experiment was performed in the above-mentioned manner using normal human keratinocytes (a gift from Dong-guk University) instead of the HaCaT cell line and then an amount of IL-1alpha secreted to the culture medium was measured with the ELISA.
# [3] = system: erythema formation due to UVB on arm inside parts of examinees; test: Suppression of skin damage (erythema formation) due to ultraviolet irradiation in examinees; type: in vivo, human; conditions: 0.5% aqueous solution, 30 μl pre-applied; UVB 2, 3 and 4 MED; compared to the control group; FIG. 1
# Method: In order to examine a skin damage (inflammatory response)-alleviating effect of the phosphatidylserine of the invention, which stimulation results from the ultraviolet irradiation, a following experiment was performed. At this time, the skin stimulation (inflammatory response) due to the ultraviolet irradiation was measured with an erythema formation level.
# First, it was measured minimal erythma dosage (MED) in arm inside parts of examinees (28 years old or more, 10 women and men, respectively). An aqueous solution including phosphatidylserine 0.5% (aqueous solution phase containing 5% PEG 300; PEG300, Sigma, US) was previously applied to the arm inside parts of the examinees in an amount of 30 μl which were then irradiated with UVB (Sankyo Denki G15T8E sunlamps UV-B, Japan) in an intensity of 2 MED (78 mj/cm^2), 3 MED (117 mj/cm^2) and 4 MED (156 mj/cm^2) to measure suppression degrees of the erythema formation. At this time, a group for which the phosphatidylserine was not treated was used as a control group.
# [4] = system: TPA-induced ear inflammation in CD-1 mouse; test: Alleviation of skin damage (inflammatory response) due to TPA in mouse ear; type: in vivo; conditions: TPA 0.03%; applied 30 μl per cm^2 at 45 minutes and 4 hours after induction; phosphatidylserine 0.5%, clofibrate 1 mM, Wy14643 1 mM; FIG. 2
# Method: In order to examine a skin damage (inflammatory response)-alleviating effect of the phosphatidylserine of the invention, which damage results from skin inflammation-inducing material, a following experiment was performed in accordance with a method used by Sheu et. al. (The Journal of Investigate Dermatology, 118, pp 94-101, 2002).
# First, CD-1 mouse (male & female, 6-8 weeks, Charles River, US) was used as an experimental object. TPA (12-0-tetradecanoylphorbol-13-acetate) 0.03% (wt./vol.; in acetone) solution 10 μl, which was skin inflammation-inducing material, was treated to inner and outer parts of both ears of the experimental animal. The ear was thickened due to TPA and there occurred an inflammatory response. Then, clofibrate (1 mM) and Wy14643 (1 mM) as already-known positive control group, which are agonists of PPAR-a, and the 0.5% phosphatidylserine containing aqueous solution used as the Example 1 as an experimental material were applied to both ears in an amount of 30 μl per cm^2 at times of 45 minutes and 4 hours after the inflammation was induced. After that, the treated parts of the ears were subject to a biopsy, and the biopsy parts were fixed to 4% formaldehyde and then subject to Hematoxylene & Eosin (E&H) staining. The tissue slide stained with H&E was magnified to 100 folds to check the inflammation alleviation.
substance,measurement,setting,value
phosphatidylserine,"protection of skin keratinocytes from ultraviolet injury (cell survival, MTT)",[1],protected the skin keratinocytes from the ultraviolet injury
same,expression amount of MMP-1,fibroblasts,decreased
same,expression amount of pro-collagen,fibroblasts; with ultraviolet irradiation and otherwise,increased
same,"inflammatory response increased due to the ultraviolet irradiation (TNF-a, IL-6, IL-1alpha amounts)",[2],considerably alleviated
same,erythema formation,[3],considerably suppressed
same,inflammation alleviation (H&E stained ear tissue),[4],inflammation was alleviated

# Reference: US8022051B2, “Composition for protection and improvement of skin, or reinforcing skin barrier function comprising phosphatidylserine” (Doosan Corporation, priority 2004, dated 2011)
